# Results taken from PubChem BioAssay AID2060503 (Molecular Pharmacology Branch, DTP, NCI, 2025).
# pIC50: −log10 of the molar value.
# System: 817829-284-R-J1-PDC complex spheroids, viability
# Test: Anticancer human tumor 817829-284-R-J1-PDC patient-derived colon adenocarcinoma cell line growth inhibition [GQUAD]
# Conditions: for pIC50: curve of first compound; for viability, T/C: stronger effect = lower value
# Excerpt: DNA G-quadruplex Stabilizer Agents in Combinations in Complex Spheroids
# A high-throughput screen of multi-cell type tumor spheroids was designed to identify active combinations of DNA G-quadruplex stabilizer agents and targeted small molecules. Complex spheroids include a stromal component modeled by human endothelial cells (HUVEC) and fibroblasts modeled by human mesenchymal stem cells (MSCs). The concentration ranges selected for each drug and investigational agent were based upon clinically achievable concentrations if the clinical Cmax of the agent was known.
# Compounds. The drugs and investigational agents: pidnarulex (CX-5461; NSC782164), APTO-253 (NSC789042), BRACO-19 (NSC847499), peposertib (NSC802822), ceralasertib (NSC780249), elimusertib (NSC800525), camonsertib (NSC841442), AZD-1390 (NSC803789), olaparib (NSC753686), talazoparib (NSC767125), ART-558 (NSC835418), sotorasib (NSC818433), MRTX-1133 (NSC836407), SN-38 (NSC673596), topotecan (NSC609699), etoposide (NSC141540), doxorubicin (NSC123127), gemcitabine (NSC613327), 5-fluorouracil (NSC19893), paclitaxel (NSC125973), vemurafenib (NSC761431), panobinostat (NSC761190), R-306465 (JNJ-16241199; NSC773264), adavosertib (NSC754352), TP-3654 (NSC805149), carboplatin (NSC241240), KSQ-4279 (NSC840948), and staurosporine (NSC755774) were obtained from the National Cancer Institute (NCI) Developmental Therapeutics Program Chemical Repository (34). The FDA-approved anticancer drug set is available from the NCI Developmental Therapeutics Program. […] The stock solutions were prepared in dimethyl sulfoxide (DMSO, Sigma-Aldrich, St. Louis, MO, cat. D2650) at 800-fold the tested concentration and stored at -70 degrees C prior to their use. All drugs and investigational agents were tested over a range starting from a high concentration at or near the clinical Cmax and decreasing in half-log increments. If the clinical Cmax for an agent had not been determined, the highest concentration tested was 10 microM.
# 2.3 Cell Culture. All cells were maintained in an incubator at 37 degrees C and 5% CO2 with 95% humidity. The PDC lines were cultured according to standard operating procedures established by the NCI PDMR. All PDCs were thawed and cultured in Matrigel-coated flasks prepared with a working solution of 1X Ham's F-12 nutrient mix, without supplementation (Invitrogen, cat. 11765054), 100 U/mL penicillin-streptomycin (Invitrogen, cat. 15140122), and 2.5% Matrigel (Corning Inc., cat. 354248) for the first three passages. The 857933-349-R-J2-PDC line was cultured in 6C/Colon 1B media, which includes advanced DMEM/F-12 (Thermo Fisher Scientific, cat. 12634028), 10 mM HEPES (Thermo Fisher Scientific, cat. 15630080), 1X GlutaMAX supplement (Thermo Fisher Scientific, cat. 35050061), 0.1 mg/mL primocin (InvivoGen, cat. ant-pm-2), 10% defined fetal bovine serum, heat inactivated (HyClone Laboratories Inc., cat. SH30070.03HI), 50% L-WRN conditioned media (ATCC, cat. CRL-3276), 1.25 mM N-Acetyl-L-cysteine (Sigma-Aldrich, cat. A9165), 10 mM nicotinamide (Sigma-Aldrich, cat. N0636), 1X B-27 supplement (Thermo Fisher Scientific, cat. 17504044), 1X N-2 supplement (Thermo Fisher Scientific, cat. 17502048), 10 microM Y-27632 dihydrochloride (Tocris Bioscience, cat. 1254), and 50 ng/mL human EGF recombinant protein (Thermo Fisher Scientific, cat. PHG0311). The 485176-168-R4-J1-PDC line was cultured in Panc media, which includes all 6C/Colon 1B media components plus 100 ng/mL human FGF-10 (Thermo Fisher Scientific, cat. 100-26), 500 nM SB-431542 (Selleckchem, cat. S1067), and gastrin (Tocris, cat. 3006).
# […]
# [1] = second compound 0.0316 µM, first compound 0.0316 µM
# [2] = second compound 0.0316 µM, first compound 0.1 µM
# [3] = second compound 0.0316 µM, first compound 0.316 µM
# [4] = second compound 0.0316 µM, first compound 1 µM
# [5] = second compound 0.0316 µM, first compound 3.16 µM
# [6] = second compound 0.0316 µM, first compound 10 µM
# [7] = second compound 0.1 µM, first compound 0.0316 µM
# [8] = second compound 0.1 µM, first compound 0.1 µM
# [9] = second compound 0.1 µM, first compound 0.316 µM
# [10] = second compound 0.1 µM, first compound 1 µM
# [11] = second compound 0.1 µM, first compound 3.16 µM
# [12] = second compound 0.1 µM, first compound 10 µM
# [13] = second compound 0.316 µM, first compound 0.0316 µM
# [14] = second compound 0.316 µM, first compound 0.1 µM
# [15] = second compound 0.316 µM, first compound 0.316 µM
# [16] = second compound 0.316 µM, first compound 1 µM
# [17] = second compound 0.316 µM, first compound 3.16 µM
# [18] = second compound 0.316 µM, first compound 10 µM
# [19] = second compound 1 µM, first compound 0.0316 µM
# [20] = second compound 1 µM, first compound 0.1 µM
# [21] = second compound 1 µM, first compound 0.316 µM
# [22] = second compound 1 µM, first compound 1 µM
# [23] = second compound 1 µM, first compound 3.16 µM
# [24] = second compound 1 µM, first compound 10 µM
# [25] = second compound 3.16 µM, first compound 0.0316 µM
# [26] = second compound 3.16 µM, first compound 0.1 µM
# [27] = second compound 3.16 µM, first compound 0.316 µM
# [28] = second compound 3.16 µM, first compound 1 µM
# [29] = second compound 3.16 µM, first compound 3.16 µM
# [30] = second compound 3.16 µM, first compound 10 µM
# [31] = second compound 10 µM, first compound 0.0316 µM
# [32] = second compound 10 µM, first compound 0.1 µM
# [33] = second compound 10 µM, first compound 0.316 µM
# [34] = second compound 10 µM, first compound 1 µM
# [35] = second compound 10 µM, first compound 3.16 µM
# [36] = second compound 10 µM, first compound 10 µM
# 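Also: spheroids exposed to agents for 7 days before readout.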
# 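For viability, T/C in this document: percent viability relative to DMSO vehicle control taken as 100%.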
compound,measurement,setting,value
CC(=O)O[C@H]1C(=O)[C@@]2(C)[C@H]([C@H](OC(=O)c3ccccc3)[C@]3(O)C[C@H](OC(=O)[C@H](O)[C@@H](NC(=O)c4ccccc4)c4ccccc4)C(C)=C1C3(C)C)[C@]1(OC(C)=O)CO[C@@H]1C[C@@H]2O + Cc1[nH]c2ccc(F)cc2c1-c1nc2c3cccnc3c3ncccc3c2[nH]1,pIC50,second compound 0.0316 µM,> 7.50
same,pIC50,second compound 0.1 µM,> 7.50
same,pIC50,second compound 0.316 µM,> 7.50
same,pIC50,second compound 1 µM,> 7.50
same,pIC50,second compound 3.16 µM,> 7.50
same,pIC50,second compound 10 µM,> 7.50
same,"viability, T/C",[1],7.69%
same,"viability, T/C",[2],5%
same,"viability, T/C",[3],4.12%
same,"viability, T/C",[4],4.33%
same,"viability, T/C",[5],3.69%
same,"viability, T/C",[6],5.32%
same,"viability, T/C",[7],6.62%
same,"viability, T/C",[8],5.4%
same,"viability, T/C",[9],5.3%
same,"viability, T/C",[10],3.81%
same,"viability, T/C",[11],4.86%
same,"viability, T/C",[12],4.62%
same,"viability, T/C",[13],7.16%
same,"viability, T/C",[14],5.87%
same,"viability, T/C",[15],4.46%
same,"viability, T/C",[16],3.72%
same,"viability, T/C",[17],4.25%
same,"viability, T/C",[18],5.31%
same,"viability, T/C",[19],7.59%
same,"viability, T/C",[20],6.66%
same,"viability, T/C",[21],6.33%
same,"viability, T/C",[22],6.63%
same,"viability, T/C",[23],6.34%
same,"viability, T/C",[24],6.37%
same,"viability, T/C",[25],3.48%
same,"viability, T/C",[26],4.37%
same,"viability, T/C",[27],3.76%
same,"viability, T/C",[28],3.37%
same,"viability, T/C",[29],3.38%
same,"viability, T/C",[30],3.67%
same,"viability, T/C",[31],3.27%
same,"viability, T/C",[32],3.76%
same,"viability, T/C",[33],3.43%
same,"viability, T/C",[34],2.91%
same,"viability, T/C",[35],3.42%
same,"viability, T/C",[36],3.04%
CCCS(=O)(=O)Nc1ccc(F)c(C(=O)c2c[nH]c3ncc(-c4ccc(Cl)cc4)cc23)c1F + Cc1[nH]c2ccc(F)cc2c1-c1nc2c3cccnc3c3ncccc3c2[nH]1,pIC50,second compound 0.0316 µM,5.23
same,pIC50,second compound 0.1 µM,5.27
same,pIC50,second compound 0.316 µM,5.23
same,pIC50,second compound 1 µM,5.26
same,pIC50,second compound 3.16 µM,7.17
same,pIC50,second compound 10 µM,7.26
same,"viability, T/C",[1],107%
same,"viability, T/C",[2],106%
same,"viability, T/C",[3],102%
same,"viability, T/C",[4],107%
same,"viability, T/C",[5],85%
same,"viability, T/C",[6],19.3%
same,"viability, T/C",[7],117%
same,"viability, T/C",[8],107%
same,"viability, T/C",[9],111%
same,"viability, T/C",[10],95.4%
same,"viability, T/C",[11],74.1%
same,"viability, T/C",[12],22.6%
same,"viability, T/C",[13],102%
same,"viability, T/C",[14],113%
same,"viability, T/C",[15],106%
same,"viability, T/C",[16],92%
same,"viability, T/C",[17],84.9%
same,"viability, T/C",[18],21.6%
same,"viability, T/C",[19],117%
same,"viability, T/C",[20],106%
same,"viability, T/C",[21],119%
same,"viability, T/C",[22],101%
same,"viability, T/C",[23],80.8%
same,"viability, T/C",[24],16.9%
same,"viability, T/C",[25],60.6%
same,"viability, T/C",[26],40.4%
same,"viability, T/C",[27],38%
same,"viability, T/C",[28],23.6%
same,"viability, T/C",[29],21.1%
same,"viability, T/C",[30],10.1%
same,"viability, T/C",[31],67.5%
same,"viability, T/C",[32],30.9%
same,"viability, T/C",[33],12%
same,"viability, T/C",[34],5.4%
same,"viability, T/C",[35],4.9%
same,"viability, T/C",[36],5.95%
